# Results: US8404803B2, “Cancer-associated antigen analogue peptides and uses thereof” (Chugai Seiyaku Kabushiki Kaisha, priority 2005, dated 2013)
# Experiments:
# Assay type in all cases: cell-based, human
# [1] = system: CD4-positive/IL-4-producing T cells; assay: Flow cytometry detection of CD4-positive/IL-4-positive T cells in peptide-stimulated mononuclear cell samples; settings: for CD4+ IL-4+ number of positive samples/tested samples: mononuclear cell samples cultured 48 hours with peptide and IL-2; for CD4+ IL-4+ number of positive samples/tested samples / CD4+ IL-4+ number of positive samples/tested samples × 100 (%): positive sample > mean of control + 2 × SD (OVCA10-MNC group, 1.148%); for frequency of CD4-positive/IL-4-producing T cells at the time of epitope determination: FIG. 14; for CD4-positive/IL-4-positive frequencies, mean ± standard deviation: epitope determination, patient's mononuclear cell samples (FIG. 14); for frequency of CD4-positive/IL-4-positive T cells at the time of epitope determination: FIG. 13, IL-2 and peptide added
# Description: (§1) All operations concerning cell culture were performed aseptically. First, human peripheral mononuclear cell fractions (comprising T cells, B cells, macrophages and such; hereinafter referred to as “mononuclear cell samples”) were prepared from the blood samples by density gradient centrifugation. Next, these mononuclear cells were suspended at 1×10^5 cell/ml in complete media having the following composition: • Complete Medium: RPMI1640 culture medium (Gibco Laboratories Inc., Grand Island, N.Y.) to which 10% fetal bovine serum (Cell Culture Laboratories, Cleveland, Ohio), 0.2 mM L-glutamine, 100 U/mL penicillin, 100 μg/mL streptomycin (Gibco Laboratories Inc.), and 0.2 ng/mL recombinant human IL-2 (Dainippon Pharmaceutical Co., Tokyo, Japan) have been mixed.
# (§2) Theses mononuclear cell samples were placed still in V-bottomed 96-well tissue culture plastic plates (Flow Laboratories Inc., Horsham, Pa.) in the presence and absence of peptides, and cultured for 48 hours at 37° C. in a CO2 culture apparatus (Sanyo Medica, Osaka, Japan).
# (§3) A number of mouse-derived anti-human specific monoclonal antibodies with different fluorescences (hereinafter referred to as ‘monoclonal antibodies’) were used to simultaneously analyze by double-staining the CD markers CD4 and CD8, which are on the T cell membranes, and the cytokines within the T cells. As the monoclonal antibodies, products labeled with either fluorescent substance phycoerythrin (hereinafter ‘PE’) or fluorescein isothiocyanate (hereinafter ‘FITC’) were used (Miltenyi Biotec, Glandbach, Germany). For detection, a flow cytometry apparatus FACScan (Becton Dickinson) was used to measure the frequency of cells to which the monoclonal antibodies had bound. Positive cells are automatically detected by the flow cytometry apparatus.
# (§4) Since positive cells cannot be identified after the cytokines have been secreted to the outside of the cells, detection was performed at a stage where the cytokines are inside the cells. Therefore, the Cytofix/Cytoperm Kit (Pharmingen, San Diego, Calif.) was used for the analysis, using methods recommended by the manufacturer and a positive control for detection recommended by the kit (Prussin C, Metcalfe D, Detection of intracytoplasmic cytokine using flow cytometry and directly conjugated anti-cytokine antibodies, J Immunol Meth. 188: 117-128, 1995). Specifically, brefeldin A (Pharmingen, San Diego, Calif.) was added at 0.7 μl/1 ml/well to stop protein production in the Golgi apparatus, and the peptide-stimulated mononuclear cell samples were treated at 37° C. for two hours. Next, the culture plates were placed on ice and the reaction was stopped by adding physiological saline at 4° C. The mononuclear cell samples were transferred into 15 ml tubes as though by washing with the physiological saline at 4° C., and were then centrifuged at 1600 rpm for ten minutes to remove the supernatant.
# (§5) First, to dye CD4s on the cell surface, 10 μl of FITC-labeled mouse anti-human CD4 was added, with CD8 monoclonal antibody as a control, and this was reacted at 4° C. for 30 minutes. The cells were then separated with 0.5% bovine serum albumin/physiological saline at 4° C., then 0.5% bovine serum albumin/physiological saline at 4° C. was added thereto, and this was centrifuged at 1600 rpm for ten minutes at 4° C. to remove the supernatant.
# (§6) Next, the mononuclear cell samples were fixed and their cell membranes were permeabilized. The cells were suspended in 250 μl of Cytofix/Cytoperm (Pharmingen) solution and reacted at 4° C. for 20 minutes. 10 μl of the aforementioned fluorescently labeled anti-IFNγ monoclonal antibody or anti-IL-4 monoclonal antibody was added to these mononuclear cell samples and reacted at 4° C. for 30 minutes. Then, the cells were separated by adding 0.5% bovine serum albumin/physiological saline at 4° C., and 0.5% BSA/PBS at 4° C. was further added thereto. After centrifugation at 1600 rpm for ten minutes at 4° C., the supernatant was removed. […]
# [2] = system: CD4-positive/IFNγ-producing T cells; assay: Flow cytometry detection of CD4-positive/IFNγ-positive T cells in peptide-stimulated mononuclear cell samples; settings: for CD4+ IFNγ+ number of positive samples/tested samples: mononuclear cell samples cultured 48 hours with peptide and IL-2; for CD4+ IFNγ+ number of positive samples/tested samples / CD4+ IFNγ+ number of positive samples/tested samples × 100 (%): positive sample > mean of control + 2 × SD (OVCA10-MNC group, 1.378%); for frequency of CD4-positive/IFNγ-producing T cells at the time of epitope determination: FIG. 16; for CD4-positive/IFNγ expression-positive frequencies, mean ± standard deviation: epitope determination, patient's mononuclear cell samples (FIG. 16); for frequency of CD4-positive/IFNγ-positive T cells at the time of epitope determination: FIG. 15, IL-2 and peptide added
# Description: as §1, §2, §3, §4, §5, §6
# [3] = system: CD8-positive/TNFα-positive T cells; assay: Flow cytometry detection of CD8 and TNFα in OVCA11-stimulated T cells; settings: typical example, FIG. 12; after OVCA11 stimulation (0.28% before)
# Description: as §3
# (§7) Since positive cells cannot be identified after the cytokines have been secreted to the outside of the cells, detection was performed at a stage where the cytokines are inside the cells. […]
# (§8) T cells activated in an antigen-specific manner are known to produce tumor necrosis factor α (TNFα) when they injure target cells, such as tumor cells. Therefore, the OVCA11-stimulated T cells obtained in [Example 3] were analyzed by flow cytometry to determine whether they indeed produced TNFα, using a similar method to [Example 3] and combinations of CD4 and TNFα, and CD8 and TNFα.
# [4] = system: CD4-positive/TNFα-positive T cells; assay: Flow cytometry detection of CD4 and TNFα in OVCA11-stimulated T cells; settings: typical example, FIG. 12; after OVCA11 stimulation (0.44% before)
# Description: as §3, §7, §8
# [5] = system: CD4-positive T cells; assay: Analysis of the CD4-positive T cell epitope (T cells positive for IL-4 or IFNγ); settings: peptides with ten amino acid residues reproducing the MUC16 primary sequence
# Description: The results were recorded as: number of double staining-positive cells/total number of counted mononuclear cells ×100=positive cell frequency (%). Furthermore, peptide antigen-specific T cell reactions were determined to be positive when the individual frequencies of positive cells in the mononuclear cell samples were the same as or greater than the mean plus two standard deviations (mean+2SD) of the negative control group, where the negative control was a mononuclear cell sample group that had been stimulated with analogue peptide (OVCA10 stimulation). In addition, each of the peptide-stimulated groups were compared by using t-tests to measure the significant difference.
# Next, to determine the T cell epitope (based not on the analogues but on the original sequence), the present inventors went back to the original amino acid sequence of the 11-times repeat sequences of MUC16 from which the 30 amino acid residue sequence: […] (SEQ ID NO: 45) common to OVCA11 and OVCA12 was derived. Furthermore, the sequence was divided into lots of ten amino acid residues to prepare OVCA101 (SEQ ID NO: 4), 102 (SEQ ID NO: 5), 103 (SEQ ID NO: 6), 104 (SEQ ID NO: 7), 105 (SEQ ID NO: 8), 106 (SEQ ID NO: 9), 107 (SEQ ID NO: 2), 108 (SEQ ID NO: 3), 109, 110, 111, 112, 113, 114, 115 (SEQ ID NO: 10) (FIG. 5), and T cells positive for IL-4 or IFNγ were detected using a method similar to the above.
# [6] = typical example of flow cytometry
Sequence,CD4+ IL-4+ number of positive samples/tested samples [1],CD4+ IL-4+ number of positive samples/tested samples × 100 (%) [1] [%],CD4+ IFNγ+ number of positive samples/tested samples [2],CD4+ IFNγ+ number of positive samples/tested samples × 100 (%) [2] [%],recognized by CD4-positive T cells [5],frequency of CD4-positive/IL-4-producing T cells at the time of epitope determination ([1]; peptide 15 μM),"CD4-positive/IL-4-positive frequencies, mean ± standard deviation ([1]; peptide 15 μM) [%]","frequency of CD4-positive/IL-4-positive T cells at the time of epitope determination [1, 6] [%]",frequency of CD4-positive/IFNγ-producing T cells at the time of epitope determination ([2]; peptide 15 μM),"CD4-positive/IFNγ expression-positive frequencies, mean ± standard deviation ([2]; peptide 15 μM) [%]","frequency of CD4-positive/IFNγ-positive T cells at the time of epitope determination [2, 6] [%]",other results
GHTAPGPLLVPFTLNFTITN (listed as Homo sapiens) [OVCA11],27/32,84.4,26/33,78.8,,,,,,,,"frequency of CD4-positive/IL-4-producing T cells compared to groups to which OVCA10 was added ([1]; FIG. 8, peptide 15 μM, statistically significant difference): higher; frequency of CD4-positive/IL-4-positive cells, mean±standard deviation ([1]; all the analyzed mononuclear cell samples (FIG. 8), peptide 15 μM): 4.314±2.805%; average number of IL-4-positive cells ([1]; healthy group): 4.89%; CD4+ IL-4+ number of positive samples/tested samples ([1]; listed as OVCA 11): 27 of the 32; average number of IL-4-positive cells ([1]; patient group): 4.12%; CD4+ IL-4+ number of positive samples/tested samples × 100 (%) ([1]; listed as OVCA 11): 84.4%; frequency of CD4-positive/IL-4-positive T cells ([1]; typical example of flow cytometry, FIGS. 6 and 7, IL-2 and analogue peptide added): 7.06%; frequency of CD4-positive/IFNγ-producing T cells compared to groups to which OVCA10 was added ([2]; FIG. 11, peptide 15 μM, statistically significant difference): higher; frequency of CD4-positive/INFγ-positive cells, mean±standard deviation ([2]; all of the analyzed mononuclear cell samples (FIG. 11), peptide 15 μM): 3.037±2.234%; average number of IFNγ-positive cells ([2]; healthy group): 3.48%; CD4+ IFNγ+ number of positive samples/tested samples ([2]; listed as OVCA 11): 26 of the 33; average number of IFNγ-positive cells ([2]; patient group): 2.85%; CD4+ IFNγ+ number of positive samples/tested samples × 100 (%) ([2]; listed as OVCA 11): 78.8%; frequency of CD4-positive/IFNγ-positive T cells ([2]; typical example of flow cytometry, FIGS. 9 and 10, IL-2 and analogue peptide added): 3.12%; frequency of CD8-positive/TNFα-positive T cells [3]: 3.98%; frequency of CD4-positive/TNFα-positive T cells [4]: 5.76%"
LFTLNPTITN [OVCA108],5/9,55.6,2/8,25.0,recognized by CD4-positive T cells,High frequency cases could be detected,6.471±13.319,1.17,High frequency cases could be detected,8.963±19.939,1.27,
PFTLNFTITN (listed as Homo sapiens) [OVCA107],5/9,55.6,3/8,37.5,recognized by CD4-positive T cells,High frequency cases could be detected,8.036±12.870,6.32,High frequency cases could be detected,7.626±12.448,2.10,
